Among the data in publication PMC3985843 (Journal of the American Chemical Society, 2014) are IC50 values, retold here.

Broadly, the IC50 is the point on the concentration scale where inhibition reaches its midpoint.

What all share (assay type): cell-based
Test [1] concerns P. falciparum Dd2 (CQR) strain. Description: in vitro antimalarial activity, chloroquine-resistant Dd2 strain. As to conditions: Plasmodium falciparum, DD2, read-out: IC50 against Dd2.
Test [2] concerns P. falciparum D6 (CQS) strain. Description: in vitro antimalarial activity, chloroquine-sensitive D6 strain. As to conditions: Plasmodium falciparum, D6, read-out: IC50 against D6.
Test [3] relates to P. falciparum 7G8 (CQR) strain. Description: in vitro antimalarial activity, chloroquine-resistant 7G8 strain. To be noted: Plasmodium falciparum, 7G8, read-out: IC50 against 7G8.

As to `CCN(CC)CCCC(C)Nc1ccnc2cc(Cl)ccc12` (stereo not drawn) [chloroquine], the results for the IC50 in test [1], in test [2] and in test [3] were 110 nM, 14.3 nM and 131 nM, respectively.

Regarding `CO[C@@H]1CC(c2ccc[nH]2)=N[C@]12O[C@@H](C)C[C@@H]1CCCCCCCc3ccc([nH]3)[C@H]12` [compound 5, marineosin A], the values for the IC50 in test [1], in test [2] and in test [3] were 127 nM, 138 nM and 199 nM, respectively.
